The numbers were not newly measured in the CATMoS acute toxicity set (Mansouri et al. 2021), which cites them from elsewhere.

Several values for one entry are separate records, joined by “and”; a condition that tells them apart may be missing. Equal entries are not always repeated.

The data set is described as follows: rat acute oral toxicity. To be noted: in vivo.
Consider `CCCCC(CC)COC(CBr)c1cccc(C2CCCCC2)c1` (stereo unspecified), for which the LD50 (usually the dose at which mortality reaches 50%) was 250 mg/kg.
Regarding `Cc1ccc(Cl)c(OCC(O)CNC(C)(C)C)c1` (stereo unspecified), the LD50 is 518 mg/kg.
Take `CCOC(=O)C1(c2ccccc2)CCN(CCOCCO)CC1`: the LD50 was 230 mg/kg.
For `CCCCN1CCCC1=Nc1ccc(Cl)c(Cl)c1`, the LD50 was 3050 mg/kg.
With `O=c1c2ccccc2n(-c2cccc(C(F)(F)F)c2)c(=O)n1CCO`, the LD50 is 810 mg/kg.
Regarding `Cc1ncc(CSSCc2cnc(C)c(O)c2CO)c(CO)c1O`, the 50% lethal dose (LD50) was 6000 mg/kg.
As for `CCc1oc2ccccc2c1C(=O)c1cc(Br)c(O)c(Br)c1`, the LD50 was 248 mg/kg.
Take `CCOc1cc(Cc2cnc(N)nc2N)cc(OCC)c1-n1cccc1`: the LD50 was 1420 mg/kg.
Turning to `CCC(CC(C)CC)=NO` (stereo unspecified), the LD50 was 3800 mg/kg.
For `CC(=O)OCCO`, the LD50 is 8250 mg/kg.
As to `Cc1ccc(/N=C/NSN(Cc2ccccc2)Cc2ccccc2)c(C)c1`, the LD50 is 1050 mg/kg.
Regarding `COc1ccc(C(=O)Nc2ccccc2CCC2CCCCN2C)cc1` (stereo unspecified), the LD50 is 57 mg/kg.
Take `CNC(=O)N(O)c1ccccc1`: the LD50 is 3400 mg/kg.
With `CNNCc1ccc(C(=O)NC(C)C)cc1`, the LD50 is 570 mg/kg.
Regarding `CCN(CC)CCNC(=O)c1ccc(N)cc1`, the LD50 is 1950 mg/kg.
`CCC(C)C(CN(C)C)c1ccc(OC)c(Cl)c1` (stereo unspecified): the 50% lethal dose (LD50) was 454 mg/kg.
As to `O=NN(CCF)C(=O)NC1CCCCC1`, the LD50 was 18.5 mg/kg.
In the case of `CCOP(=S)(OCC)SCCS(=O)(=O)CC`, the LD50 was 7.5 mg/kg.
For the compound `CNCCCC1c2ccccc2C=Cc2ccccc21`, the LD50 is 299 mg/kg and 240 mg/kg.
`CC(CN)CCCN` (stereo unspecified): the LD50 was 1690 mg/kg.
On to `O=S(=O)(O)c1ccc2c(/N=N\c3ccc(S(=O)(=O)O)c4ccccc34)c(O)c(S(=O)(=O)O)cc2c1`, for which the LD50 was 6000 mg/kg.
For `Cc1nc([N+](=O)[O-])cn1-c1ccc([N+](=O)[O-])cc1`, the LD50 was 4810 mg/kg.
With `CCOC(C1=NCC(O)CN1)c1ccccc1` (stereo unspecified), the LD50 is 1750 mg/kg.
Take `c1ccc(N=Nc2ccccc2)cc1`: the LD50 is 1000 mg/kg.
In the case of `Nc1ccc(Cc2ccc(N)cc2)cc1`, the LD50 was 517 mg/kg.
Consider `C=C(CC(=O)c1ccc(-c2ccccc2Cl)cc1)C(=O)O`, for which the LD50 was 2400 mg/kg.
Regarding `O=C1NC(=O)C2C3C(C(O)(c4ccccc4)c4ccccn4)=CC(C3=C(c3ccccc3)c3ccccn3)C12` (stereo unspecified), the LD50 was 6 mg/kg.
For `NC1CCCC(N)C1` (stereo unspecified), the LD50 was 390 mg/kg.
On to `c1ccc(Nc2ccc3ccccc3c2)cc1`, for which the LD50 is 8730 mg/kg.
With `CNC(C)Cc1ccccc1OC` (stereo unspecified), the LD50 is 630 mg/kg.
In the case of `CCCSc1nc(Cl)c([N+](=O)[O-])c(Cl)n1`, the LD50 was 300 mg/kg.
As to `CC(C)(OO)c1ccccc1`, the LD50 was 382 mg/kg.
`CC(C)=C[C@@H]1[C@@H](C(=O)OCc2coc(Cc3ccccc3)c2)C1(C)C`: the LD50 is 1240 mg/kg.
On to `C[C@H](O)[C@H](O)[C@H]1CNc2[nH]c(N)nc(=O)c2N1`, for which the LD50 is 1000 mg/kg.
Consider `CC1=NN(C(=N)N=C(N)N)C(C)(C)C1`, for which the LD50 is 4090 mg/kg.
`Oc1ccc(-c2ccc(O)cc2)cc1`: the LD50 is 4920 mg/kg.
As for `C=CC(=O)OCCC#N`, the LD50 is 180 mg/kg.
`CCOP(=O)(NC(C)=O)SC` (stereo unspecified): the LD50 is 500 mg/kg.
With `CCN(CC)CCNC(=O)C(C)(C)Oc1ccc(Cl)cc1`, the LD50 was 300 mg/kg.
Turning to `COc1cccc(CCc2ccccc2OCC(CN(C)C)OC(=O)CCC(=O)O)c1` (stereo unspecified), the LD50 was 4400 mg/kg.
On to `Cn1c(CCCC(=O)O)nc2cc(N(CCCl)CCCl)ccc21`, for which the 50% lethal dose (LD50) is 200 mg/kg.
Regarding `CCOC(C1=NCC(C)(C)N1)c1ccc(Cl)c(Cl)c1` (stereo unspecified), the LD50 is 110 mg/kg.
Turning to `NC1CCCc2ccccc2C1` (stereo unspecified), the LD50 was 270 mg/kg.
On to `COc1cc2c(cc1OC)[C@@H]1C(=O)c3ccc4c(c3O[C@@H]1CO2)C[C@H](C(C)C)O4`, for which the LD50 was 2500 mg/kg.
Regarding `CCCOP(=O)(OCCC)Oc1ccc2c(C)c(Cl)c(=O)oc2c1`, the LD50 was 80 mg/kg.
As to `COP(=S)(OC)SCSc1ccccc1`, the LD50 is 16 mg/kg.
Take `COP(=O)(OC)OC`: the LD50 was 840 mg/kg.
As for `CN(C)CCN`, the LD50 was 1140 mg/kg.
In the case of `COc1ccc(CNc2cc(C(O)CNC(C)(C)C)ccc2O)cc1` (stereo unspecified), the LD50 is 1850 mg/kg.
Take `COP(N)(=S)Oc1ccc(C(C)(C)C)cc1Cl` (stereo unspecified): the LD50 is 820 mg/kg.
On to `Cc1nc(N)nc(N2N=CCC2C)n1` (stereo unspecified), for which the LD50 was 3200 mg/kg.
`CN1CCN(C2=Cc3ccccc3Sc3ccc(Cl)cc32)CC1`: the LD50 is 115 mg/kg.
For `CCCCCCCc1cc(C)c(O)c(C)c1`, the median lethal dose (LD50) is 1600 mg/kg.
For the compound `OC1CCCc2ccccc21` (stereo unspecified), the LD50 was 1620 mg/kg.
`CCOC(C1=NCCCN1)c1cccc2ccccc12` (stereo unspecified): the LD50 is 375 mg/kg.
Take `CCCn1cnc2c1c(=O)n(CCCCC(C)=O)c(=O)n2C`: the LD50 is 940 mg/kg.
On to `CCC1(CC)Oc2cccc(OC(=O)NC)c2O1`, for which the LD50 was 46 mg/kg.
With `CON=Cc1ccc(OCC(O)(Cn2cncn2)C(C)(C)C)cc1` (stereo unspecified), the LD50 is 921 mg/kg.
Regarding `O=C(Nc1ccccc1)Nc1cnns1`, the LD50 was 5350 mg/kg.
For `O=C1OCCN1/N=C/c1ccc([N+](=O)[O-])o1`, the LD50 is 2340 mg/kg.
Regarding `O=C(COc1ccc(Cl)cc1)N1CCN(Cc2ccc3c(c2)OCO3)CC1`, the LD50 was 4480 mg/kg.
Turning to `O=c1nc(O)n(Cl)c(=O)n1Cl`, the LD50 was 1220 mg/kg.
For the compound `O=C(Cl)C(Cl)(Cl)Cl`, the LD50 is 600 mg/kg.
For `CC(=O)C=Cc1ccc(-c2ccccc2)cc1`, the LD50 is 2230 mg/kg.
For `CC(NN)c1ccccc1` (stereo unspecified), the LD50 is 458 mg/kg.
Regarding `O=C(O)CCC(=O)OC1CCCCC1`, the LD50 is 6500 mg/kg.
Take `CN1CCOC(c2ccccc2)c2ccccc2C1` (stereo unspecified): the LD50 is 80 mg/kg.
`O=c1[nH]c2c(Cl)c(Cl)cc(Cl)c2o1`: the LD50 was 500 mg/kg.
For `NC1(C(=O)O)CCCC1`, the LD50 was 290 mg/kg and 260 mg/kg.
Regarding `CCCOC(=O)CC(SP(=O)(OC)OC)C(=O)OCCC` (stereo unspecified), the LD50 is 360 mg/kg.
As to `OCCOCCOCCN1CCN(C(c2ccccc2)c2ccc(Cl)cc2)CC1` (stereo unspecified), the LD50 is 920 mg/kg.
`C=C1/C(=C\C=C2/CCC[C@]3(C)[C@@H]([C@H](C)/C=C/[C@H](C)C(C)C)CC[C@@H]23)C[C@@H](O)C[C@@H]1O`: the LD50 was 3.5 mg/kg.
In the case of `CCCOP(=S)(OCCC)Oc1cnn(C)c(=O)c1OC`, the LD50 was 26 mg/kg.
On to `CCOP(=S)(OCC)SCSCc1ccccc1`, for which the LD50 is 6 mg/kg.
In the case of `Cc1cccc(/N=N\N(C)C)c1`, the LD50 is 300 mg/kg.
`C=COCCO`: the LD50 is 3910 mg/kg.
Take `C/C=C\c1ccc(OCc2ccccc2)c(OC)c1`: the LD50 was 4900 mg/kg.
Consider `CCCCC(CC)COC(C[n+]1ccccc1)c1cccc(Cl)c1` (stereo unspecified), for which the LD50 was 250 mg/kg.
Take `CCCCCCCCCCCCCCCCCC(=O)Cl`: the median lethal dose (LD50) is 7500 mg/kg.
In the case of `CN(C)/N=N/c1ccccc1C(=N)O`, the LD50 is 56 mg/kg.
`Nc1ncc(C=Cc2ccc([N+](=O)[O-])o2)nn1`: the LD50 is 250 mg/kg.
As for `C=CC(=O)OCCOC(=O)C=C`, the LD50 is 300 mg/kg.
Turning to `Nc1ccc(C(F)(F)F)cc1`, the LD50 is 128 mg/kg.
Take `CC1NC(=S)NC1=O` (stereo unspecified): the LD50 was 1050 mg/kg.
With `NC(=S)Cc1cccc2ccccc12`, the LD50 is 60 mg/kg.
For `CN(C)CCCN(C)[C@H]1CC[C@H]2[C@@H]3CC=C4C[C@@H](O)CC[C@]4(C)[C@H]3CC[C@]12C`, the LD50 was 470 mg/kg.
Regarding `CCCN(C)C`, the 50% lethal dose (LD50) was 500 mg/kg.
Turning to `CCCCCCCCCCCCOC(=O)CS(=O)(=O)O`, the LD50 is 700 mg/kg.
As for `O=S(=O)(O)c1cc(Cl)ccc1C=Cc1ccc(-n2nc3ccc4c(S(=O)(=O)O)cccc4c3n2)cc1S(=O)(=O)O`, the LD50 was 19900 mg/kg.
Regarding `CCOP(=S)(OCC)SCCl`, the LD50 is 7 mg/kg.
With `CCOC(=O)CC(=O)NP(=O)(OC)SC` (stereo unspecified), the LD50 was 125 mg/kg.
For `CN(C)C(CSC(N)=O)CSC(N)=O`, the LD50 was 250 mg/kg and 225 mg/kg.
Take `C=CCc1ccc(OC(=O)NC)c(OC)c1`: the LD50 is 250 mg/kg.
For `CCOC(=O)C1CC(=O)C(=C(O)C2CC2)C(=O)C1` (stereo unspecified), the 50% lethal dose (LD50) is 4460 mg/kg.
Regarding `C=CCC1(C(C)CCC)C(=O)N=C(O)NC1=O` (stereo unspecified), the LD50 is 125 mg/kg.
For `CCOc1cc2c3c([nH]c2cc1N)CCCC3`, the LD50 was 810 mg/kg.
For `CC(C)(O)CC(C)(O)c1ccc(Cl)cc1` (stereo unspecified), the LD50 is 1140 mg/kg.
As to `O=C1N=C2c3ccccc3N=CN2C1=Cc1ccccc1`, the LD50 is 325 mg/kg.
Regarding `CCOC(C1=NCC(C)(C)CN1)c1ccc(OC)cc1` (stereo unspecified), the LD50 was 625 mg/kg.
Take `C=CC(CCCCC)OC(C)=O` (stereo unspecified): the LD50 is 850 mg/kg.
As for `CC(O)CN(CC(C)O)c1nc(Nc2ccc(S(=O)(=O)O)cc2)nc(Nc2ccc(/C=C/c3ccc(Nc4nc(Nc5ccc(S(=O)(=O)O)cc5)nc(N(CC(C)O)CC(C)O)n4)cc3S(=O)(=O)O)c(S(=O)(=O)O)c2)n1` (stereo unspecified), the LD50 is 12100 mg/kg.
Consider `CCCCOCCOCCOCCOCCOCCCC`, for which the LD50 is 6500 mg/kg.
For `CNC(=O)c1ccc(Cl)c(S(=O)(=O)NC)c1`, the LD50 was 1400 mg/kg.
As for `CC(C)c1ccc(N)cc1`, the LD50 was 985 mg/kg.
As for `COCCCO`, the LD50 was 5710 mg/kg.
`COCC(=O)N(c1c(C)cccc1C)N1CCOC1=O`: the LD50 is 1860 mg/kg.
Consider `CC1CC=CC2C3OC3(C)C(C)C3C(Cc4ccccc4)NC(=O)C23OC(=O)OC=CC(C)(O)C1=O` (stereo unspecified), for which the LD50 is 9.1 mg/kg.
As for `COC1C(O)CC(=O)OC(C)CC=CC=CC(OC2CCC(N(C)C)C(C)O2)C(C)CC(CC=O)C1OC1OC(C)C(OC2CC(C)(O)C(O)C(C)O2)C(N(C)C)C1O` (stereo unspecified), the LD50 was 4650 mg/kg.
As for `O=C1CN=C(c2ccccc2)c2cc([N+](=O)[O-])ccc2N1`, the LD50 was 825 mg/kg.
For the compound `C=CCON/C(CCC)=C1\C(=O)CC(C)(C)C(C(=O)OC)=C1O`, the LD50 was 2260 mg/kg.
Take `CN(C)C1CCc2ccccc2C(Oc2ccc([N+](=O)[O-])cc2)C1` (stereo unspecified): the 50% lethal dose (LD50) is 534 mg/kg.
`N=C(O)CCC/N=C(\c1ccc(Cl)cc1)c1cc(F)ccc1O`: the LD50 was 1350 mg/kg.
For `C=CCOC(=O)CC#N`, the median lethal dose (LD50) was 160 mg/kg.
`CCN(C(C)C)C(C)C`: the LD50 is 317 mg/kg.
For `CC(C)(C)CCCCC(=O)O`, the LD50 was 2070 mg/kg.
As to `CC(C)(COC(N)=O)COC(N)=O`, the LD50 was 2510 mg/kg.
For the compound `Cc1cc(Cl)ccc1N`, the median lethal dose (LD50) is 1060 mg/kg.
Regarding `CCOP(=S)(OCC)SCn1nc(Cl)c(Cl)cc1=O`, the LD50 was 1880 mg/kg.
Take `Cc1cc(S(=O)(=O)O)cc(C)c1O`: the LD50 was 2650 mg/kg.
In the case of `C[C@H](N)[C@H](O)c1cccc(O)c1`, the LD50 was 240 mg/kg.
Turning to `S=c1[nH]nc(NCNc2n[nH]c(=S)s2)s1`, the LD50 is 4640 mg/kg.
